One compound from patent US20190350955A1, “METHODS AND PHARMACEUTICAL COMPOSITIONS FOR THE TREATMENT OF CARDIOMYOPATHIES” (INSERM (Institut National de la Sante et de la Recherche …, priority 2016, published 2019) can be followed below.

Assay [1] concerns neonatal rat cardiomyocytes (NRC). Briefly: Western blot of AMPK phosphorylation and Nmrk2 protein in NRC. Type of assay: cell-based. The note with it: AICAR 500 μM, 48 h. Here is the method: Proteins were homogenized in a lysis buffer (Tris-HCl pH 7.5 50 mM, NP40 Igepal 1%, NaCl 150 mM, EDTA 1 mM, DTT 1 mM, Glycerol 10%) in the presence of proteases.
phosphatases and deacetylases inhibitors (PMSF 0.5 mM, NaF 50 mM, PPiNa 5 mM, Roche protease cocktail inhibitor 1/100, Santa Cruz deacetylase cocktail inhibitor 1/100). Equal amounts of proteins (10 to 20 μg) were separated on SDS-PAGE and transferred to nitrocellulose membranes. Proteins were detected by overnight incubation at 4° C. with primary antibodies, followed by IRDye 700 or IRDye800 fluorescent antibodies (Li-Cor Biosciences. 1/2500) and scanned on an Odyssey CLx Infrared Imaging System (Li-Cor Biosciences).
(§1) Isolation and Treatments of Neonatal Rat Cardiomyocytes (NRC) NRC were isolated as described previously (Diguet et al., 2011). 1-day-old rat pups were killed by decapitation and the cardiac ventricles were harvested and minced into 1 to 2-mm wide cubes with scissors. After washing with Tyrode solution, heart fragments were subjected up to 10 rounds of digestion with 0.05 mg/ml of Liberase Blendzyme 4 (Roche Applied Science) in 10 ml oxygenated Tyrode solution under agitation at 37° C. for 10 minutes. The supernatant of the first digestion was discarded and the following digestions were centrifuged and the cell pellet dissociated in 2 ml of DMEM, 10% FCS. […]

Assay [2] shares this test system. Briefly: NAD+ and NADH levels in NRC. Type of assay: cell-based. The settings on record: AICAR treatment. On the procedure: For cell cultures, the wells were washed twice with PBS and scraped on ice in HClO4 0.5M (100 μl/well in 12-well plate). Acid extracts were neutralized with a half volume of KOH 1M/K2HPO4-KH2PO4 0.33 M pH 7.5. Heat denaturation was selective for NAD^+ in this condition. Measures were made on a volume of […], of non heated extracts (NADt) or 25 μl of heated extracts (NADH) (diluted 1/10 to 1/20).
For both types of extracts (buffered ethanol or HClO4) we added 100 μL of reaction buffer (600 mM ethanol, 0.5 mM 3-(4.5-dimethylthiazol-2-yl)-2.5-diphenyltetrazolium bromide (MTT), 2 mM phenazine ethosulfate (PES), 120 mM Bicine (pH 7.8), yeast alcohol dehydrogenase (SIGMA A3263>300 u/mg.) 0.05 mg/ml. Kinetics of the reaction (OD at 550 nm, every 30 seconds for 40 minutes) was followed on a TECAN Infinite F500 microplate reader. NAD was quantified in duplicates for each sample by comparison to a range of standard NAD^+ concentration using linear regression curve equation method between NAD^+ standard concentrations and the slope of the reaction in OD units/sec. NAD^+/NADH was obtained by the formula ([NADt]−[NADH])/[NADH]. Cell extracts were quantified for protein concentration determined by Bradford assay.
Isolation and Treatments of Neonatal Rat Cardiomyocytes (NRC) NRC were isolated as described previously (Diguet et al., 2011). […]

The subject of another assay is Nmrk2. Put plainly: RT qPCR of Nmrk2 mRNA in NRC. The class given is cell-based, rat. The settings on record: AICAR treatment. On the procedure:
cDNAs were reverse transcribed from RNA (1.5 μg) extracted in TRIzol (Thermofisher) from cell cultures and tissues using the Superscript II Reverse Transcriptase (Life Technologies). Quantitative PCR was carried out on a Light Cycler 480 (Roche Diagnostics) using Fast Start SYBR Green Master (Roche Diagnostics). Quantification of gene expression was calculated as R=2^ΔCt(Ref Cp−target Cp), with Hprt used as a as reference. Primers were designed using the NCBI Primer-BLAST software. Primer sequences are available on request.
as §1, with “FCS. The different fractions were pooled and centrifuged on a discontinuous Percoll gradient (bottom 58.5%. top 40.5%. 30 min. 3000 rpm) to enrich in cardiomyocytes at the interface between the 2 Percoll solutions.” for “FCS.”
In general terms: In qPCR the cycle at which signal appears reflects the starting amount.

The next assay concerns Nmrk2 promoter. Put plainly: Nmrk2 promoter luciferase reporter assay in NRC. The settings on record: NRC, AICAR 500 μM. Type of assay: cell-based, rat. Here is the method:
Isolation and Treatments of Neonatal Rat Cardiomyocytes (NRC) NRC were isolated as described previously (Diguet et al., 2011). 1-day-old rat pups were killed by decapitation and the cardiac ventricles were harvested and minced into 1 to 2-mm wide cubes with scissors. After washing with Tyrode solution, heart fragments were subjected up to 10 rounds of digestion with 0.05 mg/ml of Liberase Blendzyme 4 (Roche Applied Science) in 10 ml oxygenated Tyrode solution under agitation at 37° C. for 10 minutes. The supernatant of the first digestion was discarded and the following digestions were centrifuged and the cell pellet dissociated in 2 ml of DMEM, 10% FCS. The different fractions were pooled and centrifuged on a discontinuous Percoll gradient (bottom 58.5%. top 40.5%. 30 min. 3000 rpm) to enrich in cardiomyocytes at the interface between the 2 Percoll solutions. Non cardiac cells containing mainly fibroblasts were at the top of the tubes. Neonatal cardiomyocytes were seeded at a density 5×10^5 cells/well in 6-well plates coated with 10 μg/ml of laminin (BD Biosciences) in DMEM without pyruvate, with glucose 4.5 g/l, 10% horse serum, 5% FCS and cultured at 37° C. in 1% CO, atmosphere. To assay the impact on NAD^+ and Nmrk2 expression, Azaserin and FK866 drugs were added in the culture medium at day 5 and renewed everyday when the treatment was prolonged over several days. The same was done for NAD^+, NR and AICAR (5-aminoimidazole-4-carboxamide-1-β-D-ribofuranoside). AICAR was administrated for 24 h only. Doses are indicated in the legends. For treatment of transfected cells (see next section), AICAR, FK866 and PPAR agonists and antagonist were administrated 1 day after transfection. PPAR agonists: GW7647 for PPARα, GW501516 for PPARβ/δ and GW1929 for PPARγ; PPAR antagonists: GW6471 PPARα, GSK3787 for PPARβ/δ and GW9662 for PPARγ were ordered from SIGMA ALDRICH CHIMIE, Saint Quentin Fallavier, France.
The transcription initiation site of mouse Nmrk2 promoter was determined by 5′RACE and was conform to the reported site in the Genebank (NM_027120.2). The promoter of the mouse Nmrk2 gene was cloned from C57B16/N genomic DNA by PCR, and inserted into a pGL4.10[luc2] luciferase reporter plasmid (Promega prod no E6651). Subsequent deletions were performed by enzymatic digestion or primer mediated subcloning of the original fragment. 2.5×10^5 cardiomyocytes in 12-well plates were co-transfected at day 2 of culture with 1 μg of Nmrk2 pGL4.10[luc2] constructs and 100 ng of pGL4.73[hRluc/SV40] Vector (Promega prod no E6911) as an internal control of transfection efficiency using Lipofectamine 2000 (Lifetechnology) as indicated by the supplier. In the case of AICAR treatment, Luciferase activity was analyzed 48 h later with the Dual-Luciferase Assay System (Promega).
The pcDNA3 vectors harboring dominant negative AMPK, PPARα, PPARβ and PPARγ as well as RXR genes were kindly provided by Pr. Michel Raymondjean (El Hadri et al. (2015). AMPK Signaling Involvement for the Repression of the IL-1beta-Induced Group IIA Secretory Phospholipase A2 Expression in VSMCs. Journal 10, e0132498; Ravaux et al. (2007). Inhibition of interleukin-1 beta-induced group 11A secretory phospholipase A2 expression by peroxisome proliferator-activated receptors (PPARs) in rat vascular smooth muscle cells: cooperation between PPARbeta and the proto-oncogene BCL-6. Journal 27, 8374-8387; Woods et al. (2000). Characterization of the role of AMP-activated protein kinase in the regulation of glucose-activated gene expression using constitutively active and dominant negative forms of the kinase. Journal 20, 6704-6711). These vectors were cotransfected at a dose of 100 ng/well in 24-well plates with 500 ng of Nmrk2 luciferase constructs.

As to `NC(=O)c1ncn([C@@H]2O[C@H](COP(=O)(O)O)[C@@H](O)[C@H]2O)c1N` [AICAR, 5-Aminoimidazole-4-carboxamide ribonucleotide], in assay [1], the AMPK phosphorylation result is “stimulated” and the “Nmrk2 expression at the protein level” value is listed as “induced”. Moreover, the “NAD+ or NADH levels” value in assay [2] is listed as “did not modulate”. In addition, the “Nmrk2 expression (mRNA)” value with Nmrk2 is on record as “robustly induced”. In the assay with Nmrk2 promoter, the “full-length p3009-Luc Nmrk2 reporter response” value was “highly responsive” and the “p581-Luc Nmrk2 reporter response” value was “modestly responsive”.
